# Values of other authors as cited in patent US20040039052A1, “Urinary incontinence therapy” (priority 1997, published 2004).
# Columns and labels:
# [1] = system: vanilloid receptor-mediated release of tachykinins in the rat urinary bladder; settings: rats with experimentally induced hypertrophy; cited from earlier work
# [2] = system: patients with detrusor hyperreflexia (DH); settings: intravesical instillation; cited from earlier work
# [3] = system: bladder afferents; settings: rats; intravesicular 10-100 μmol; cited from earlier work
structure (smiles),measurement,setting,value
"COc1cc(CNC(=O)CCCC/C=C/C(C)C)ccc1O [CAP, capsaicin, reference compound]",reducing symptoms in rats having an experimentally induced hypertrophy,[1],effective in reducing symptoms
same,period after treatment when symptoms deteriorate,[2],2 to 4 days
same,tolerability upon instillation,[2],intense burning and pain in the lower abdomen upon instillation
same,desensitization of bladder afferents,[3],long-lasting desensitization of bladder afferents
